Legend:
JIMT-1 cells = experiment: Cell cycle arrest assessment (propidium iodide); assay type: cell-based, human
Method: 1×10^6 JIMT-1 cells were plated in 3mL of DMEM/FBS 90:10 (v/v) in 6-well plates and incubated overnight. Cells were treated with the compound 2384 of the invention or with CR8 for 24h. Cells were then harvested and washed three times with PBS. Cells were suspended into 300µL of propidium iodide working solution (0.05mg/mL) and incubated for 45 minutes at 4°C in the dark. Analysis was performed using a BD Fortessa flow cytometer controlled by BD FACSDiva software (BD Biosciences) and data were analyzed using FlowJo software (BD Bioscience).

[1] = test system: cancerous human cell lines; experiment: In vitro cytotoxicity assay (MTT), side-by-side comparisons over the cell line panel; assay type: cell-based; settings: side-by-side comparison (Figures 1-3, Table 3), result in words
Method: In vitro cytotoxicity of compounds of the disclosure was assessed on several cancerous human cell lines. Cells were plated in 96-well plates at an appropriate density depending on the cell line (between 1000 and 10 000 cells/well in 100µL of appropriate culture media) and incubated at 37°C for 24 hours. Serial dilutions of the tested compound previously dissolved in culture media (50µL) were added, and incubation was carried at 37°C out for 6 days. MTT (5mg/mL in PBS, 20µL, Sigma-Aldrich) was added into the wells, and incubation was continued for 1 to 4 hours at 37°C. Culture media was then carefully removed, and well content was homogeneously dissolved with acidified isopropanol. Absorbance values were measured on a microplate reader using a wavelength of 570 nm (with a reference wavelength of 690 nm). The IC50 concentration values compared to untreated control cells were determined using inhibition dose response curve fitting (GraphPad Prism 9). Exatecan mesylate (cat#HY-13631A) and CR8 (CAS# 294646-77-8; cat#HY-18340) were purchased from MedChemExpress (China).

MDA-MB-231 = experiment: In vitro cytotoxicity assay (MTT); assay type: cell-based, human; settings: 6 days incubation
Summary of the method: (§1)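 Viability of each human cancer line is measured by MTT reduction after six-day continuous compound treatment at 37°C. IC50 derives from inhibition curve fitting relative to untreated cells.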

JIMT-1 = experiment: In vitro cytotoxicity assay (MTT); assay type: cell-based, human; settings: 6 days incubation
Summary of the method: as §1

NCI-N87 = experiment: In vitro cytotoxicity assay (MTT); assay type: cell-based, human; settings: 6 days incubation
Summary of the method: as §1

SKBR-3 = experiment: In vitro cytotoxicity assay (MTT); assay type: cell-based, human; settings: 6 days incubation
Summary of the method: as §1

BT-474 = experiment: In vitro cytotoxicity assay (MTT); assay type: cell-based, human; settings: BT-474; 6 days incubation, MTT
Summary of the method: as §1

MDA-MB-453 = experiment: In vitro cytotoxicity assay (MTT); assay type: cell-based, human; settings: 6 days incubation
Summary of the method: as §1

CycK = CycK protein quantification by Western Blot; assay type: cell-based, human; settings: 10nM, 2h treatment of JIMT-1 cells
Method: 1×10^6 JIMT-1 cells were plated in 3mL of DMEM/FBS 90:10 (v/v) in 6-well plates and incubated overnight. Cells were treated with the compound 2384 of the invention with or without the proteasome inhibitor MG-132 (MedChemExpress, Cat HY-13259) for 2h. Cells were harvested, and protein were extracted using complete RIPA buffer (RIPA buffer, 1 mM DTT, 1M NaF, 100 mM sodium orthovanadate, phosphatase inhibitor buffer and protease inhibitors) for 1 hour on ice. Lysate were centrifuged 15min at 12 000g at 4°C. and proteins were mixed with 4x Laemmli Sample Buffer (Bio-Rad), heated at 95 °C for 5 mins and separated by SDS PAGE (PROTEAN TGX Stain-Free Gels, Bio-Rad). Proteins were then transferred onto PVDF membrane (iBlot®2 PVDF stacks, Invitrogen) using the iBlot2 device (Invitrogen) and blocked with TBS buffer (Intercept® Blocking Buffer, LI-COR Biosciences). Primary antibodies were incubated overnight at 4°C and secondary antibodies (IRDye Infrared Dyes from LI-COR Biosciences) 1 hour at room temperature. Used primary antibody were: anti-CycK (cat#A301-939A, Bethyl Laboratories, dil. 1:1000) and anti-β-actin (cat#A5441, Sigma-Aldrich, dil. 1:5000). Membranes were scanned using a c500 Imaging System (Azure Biosystems) and densitometric quantification were performed using imaged software. Protein levels were normalized against β-actin.

SMILES: CC[C@H](CO)Nc1nc(NCc2ccc(-c3ccccn3)cc2)c2ncn(C(C)C)c2n1 [CR8, reference compound]
- cell cycle analysis (JIMT-1 cells; 24h at 50 nM): arrest in G2/M phase
- cell cycle analysis (JIMT-1 cells; 24h at 2, 5, and 10 nM): no impact on cell cycle
- in vitro cytotoxicity potency [1]: potencies in the high nanomolar range
- IC50 (MDA-MB-231): 10.4 nM
- IC50 (JIMT-1): 25.2 nM
- IC50 (NCI-N87): 62.2 nM
- IC50 (SKBR-3): 30.6 nM
- IC50 (BT-474): 18.4 nM
- IC50 (MDA-MB-453): 40.3 nM
- CycK degradation (CycK): no CycK was observed

Reference: EP4512427A1, “ANTIBODY-DRUG CONJUGATES BASED ON MOLECULAR GLUE DEGRADERS AND USES THEREOF” (Mablink Bioscience, priority 2023, dated 2025)
